Source: EP4603105A1, “PHARMACEUTICAL COMPOSITION CONTAINING CYCLIC COMPOUND HAVING SELECTIVE KRAS INHIBITORY EFFECT AGAINST HRAS AND NRAS” (CHUGAI SEIYAKU KABUSHIKI KAISHA, priority 2022, dated 2024)
Where a SMILES comes first, the peptide text is derived from it. Bridges are numbered along the chain shown (N, C = ends). [ ]: non-standard residue; d: D form. The star is where a group is joined. hPhe(3-Cl-4-CF3) = N[C@@H](CCc1ccc(C(F)(F)F)c(Cl)c1)C(=O)O; NPrPhe(4-CF3) = CCCN[C@@H](Cc1ccc(C(F)(F)F)cc1)C(=O)O; NMeGly(cPent) = CN[C@H](C(=O)O)C1CCCC1; NMeD = CN[C@@H](CC(=O)O)C(=O)O; NMeL = CN[C@@H](CC(C)C)C(=O)O; Morpholide = C1CN(*)CCO1; NMeA = CN[C@@H](C)C(=O)O; Ac5c = NC1(C(=O)O)CCCC1; Aze = O=C(O)[C@@H]1CCN1; Sar = CNCC(=O)O

Tests used:
[1] = target: GDP-bound NRAS wild-type protein (Homo sapiens, UniProt P01111); test: Binding to NRAS by surface plasmon resonance (SPR), KD and KD ratio to KRAS
GDP-bound NRAS wild-type protein, sequence (P01111 whole entry): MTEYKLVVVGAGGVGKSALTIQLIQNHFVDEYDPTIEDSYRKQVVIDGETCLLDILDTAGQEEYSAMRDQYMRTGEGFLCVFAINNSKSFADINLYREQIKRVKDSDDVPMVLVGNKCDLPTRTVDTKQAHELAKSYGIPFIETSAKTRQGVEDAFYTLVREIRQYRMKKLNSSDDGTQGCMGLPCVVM
Procedure, shortened: (§1)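 Affinity is measured by surface plasmon resonance at 30°C against captured, GDP-loaded RAS carrying a biotinylated Avi tag. Compounds are titrated by single-cycle kinetics, and KD comes from a 1:1 fit.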

[2] = target: HRAS wild-type protein (Homo sapiens, UniProt P01112); test: Binding to HRAS by surface plasmon resonance (SPR), KD and KD ratio to KRAS
HRAS wild-type protein, sequence (P01112 whole entry): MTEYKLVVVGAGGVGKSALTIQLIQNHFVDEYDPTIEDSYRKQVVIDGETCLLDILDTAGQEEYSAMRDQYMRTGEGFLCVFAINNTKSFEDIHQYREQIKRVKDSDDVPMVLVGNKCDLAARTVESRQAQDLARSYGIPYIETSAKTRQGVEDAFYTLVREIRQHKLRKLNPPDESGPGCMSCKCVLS
Procedure, shortened: as §1

[3] = system: human lung cancer strain NCI-H441; assay type: cell-based
Procedure, shortened: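 Readout: […] after the ATP-based reagent. Compound: serial dilutions in dimethyl sulfoxide.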

[4] = ratio of the KD value with respect to GDP-bound NRAS wild-type protein to the KD value with respect to KRAS
[5] = ratio of the KD value with respect to HRAS wild-type protein to the KD value with respect to KRAS
[6] = ratio of KD value for GDP-bound NRAS wild-type protein to KD value for KRAS (SPR)
[7] = ratio of KD value for HRAS wild-type protein to KD value for KRAS (SPR)
[8] = ratio of KD for GDP-bound NRAS wild-type protein to KD for KRAS
[9] = ratio of KD for HRAS wild-type protein to KD for KRAS

IC50 [3] [nM] | SMILES | NRAS /KRAS [1, 4] | HRAS /KRAS [2, 5] | NRAS /KRAS [1, 6] | HRAS /KRAS [2, 7] | NRAS /KRAS [1, 8] | HRAS /KRAS [2, 9]
7.5 | CC[C@H](C)[C@@H]1NC(=O)[C@H](CC(C)C)N(C)C(=O)C[C@@H](C(=O)N2CCC2)N(C)C(=O)[C@H](C2CCCC2)N(C)C(=O)C2(CCCC2)NC(=O)[C@@H]2CCCN2C(=O)[C@H](CCc2cc(F)c(C(F)(F)F)c(F)c2)NC(=O)CN(C)C(=O)[C@H](Cc2ccc(C(F)(F)F)cc2)N2CCCC[C@@H](C2=O)N(C)C(=O)CN(C)C1=O [PP0570] | B (a compound having 3 or more and less than 10 is denoted as B) | B (a compound having 3 or more and less than 10 is denoted as B) |  |  |  | 
18.1 | CCCN(C)C(=O)[C@@H]1CC(=O)N(C)[C@@H](CCOC)C(=O)N[C@@H]([C@@H](C)CC)C(=O)N(C)CC(=O)N(C)[C@H]2C/C=C\CCN(C2=O)[C@@H](Cc2ccc(C(F)(F)F)cc2)C(=O)N(C)CC(=O)N[C@@H](CCc2ccc(C(F)(F)F)c(OC)c2)C(=O)N2C[C@@H](C)C[C@H]2C(=O)NC2(CC(C)(C)C2)C(=O)N(C)[C@@H](C2CCCC2)C(=O)N1C [PP2001] | A (a compound having 10 or more and less than 20 is denoted as A) | A (a compound having 10 or more and less than 20 is denoted as A) |  |  |  | 
11.8 | C#CC[C@H]1C(=O)N[C@@H]([C@@H](C)CC)C(=O)N(C)CC(=O)N(C)[C@H]2C/C=C\CCN(C2=O)[C@@H](Cc2ccc(C(F)(F)F)cc2)C(=O)N(C)CC(=O)N[C@@H](CCc2cc(F)c(C(F)(F)F)c(F)c2)C(=O)N2C[C@@H](C)C[C@H]2C(=O)NC2(CC(C)(C)C2)C(=O)N(C)[C@@H](C2CCCC2)C(=O)N(C)[C@H](C(=O)N(C)CC)CC(=O)N1C [PP2075] | A (a compound having 10 or more and less than 20 is denoted as A) | A (a compound having 10 or more and less than 20 is denoted as A) |  |  |  | 
6.1 | CCO[C@@H]1C[C@H]2C(=O)NC3(CC(C)(C)C3)C(=O)N(C)[C@@H](C3CCCC3)C(=O)N(C)[C@H](C(=O)N(C)C)CC(=O)N(C)[C@@H](CC)C(=O)N[C@@H]([C@@H](C)CC)C(=O)N(C)CC(=O)N(C)[C@H]3C/C=C\CCN(C3=O)[C@@H](Cc3ccc(C(F)F)cc3)C(=O)N(C)CC(=O)N[C@@H](CCc3cc(F)c(C(F)(F)F)c(F)c3)C(=O)N2C1 [PP2049] | A (a compound having 10 or more and less than 20 is denoted as A) | B (a compound having 3 or more and less than 10 is denoted as B) |  |  |  | 
60.3 | CCCOC[C@H]1C(=O)N[C@@H]([C@@H](C)CC)C(=O)N(C)CC(=O)N(C)[C@H]2C/C=C\CCN(C2=O)[C@@H](CC2CCC(F)(F)CC2)C(=O)N(C)CC(=O)N[C@@H](CCc2ccc(C(F)(F)F)c(OC)c2)C(=O)N2C[C@H](OCC)C[C@H]2C(=O)N(C)C2(CCC2)C(=O)N(C)[C@@H](C2CCCC2)C(=O)N(C)[C@H](C(=O)N(C)C)CC(=O)N1C [PP2350] | A (a compound having 10 or more and less than 20 is denoted as A) | A (a compound having 10 or more and less than 20 is denoted as A) |  |  |  | 
2.3 | CCO[C@@H]1C[C@H]2C(=O)NC3(CC(C)(C)C3)C(=O)N(C)[C@@H](C3CCCC3)C(=O)N(C)[C@H](C(=O)N(C)C)CC(=O)N(C)[C@@H](CC3CCC3)C(=O)N[C@@H]([C@@H](C)CC)C(=O)N(C)CC(=O)N(C)[C@H]3C/C=C\CCN(C3=O)[C@@H](Cc3ccc(C(F)(F)F)cc3)C(=O)N(C)CC(=O)N[C@@H](CCc3cc(F)c(C(F)(F)F)c(F)c3)C(=O)N2C1 [PP1651] |  |  | A (a compound having 10 or more and less than 20 is denoted as A) | B (a compound having 3 or more and less than 10 is denoted as B) |  | 
73.4 | CC[C@H](C)[C@@H]1NC(=O)[C@H](CC2CC2)N(C)C(=O)C[C@@H](C(=O)N2CCCC2)N(C)C(=O)[C@H](C2CCCC2)N(C)C(=O)C2(CCCC2)NC(=O)[C@@H]2C[C@@H](C(F)(F)F)CN2C(=O)[C@H](CCc2cc(F)c(C(F)(F)F)c(F)c2)NC(=O)CN(C)C(=O)[C@H](Cc2ccc(C(F)(F)F)cc2)N2CC/C=C\C[C@@H](C2=O)N(C)C(=O)CN(C)C1=O [PP1506] |  |  | AA (a compound having 20 or more is denoted as AA) | A (a compound having 10 or more and less than 20 is denoted as A) |  | 
7.9 | CCC[C@H]1C(=O)N[C@@H]([C@@H](C)CC)C(=O)N(C)CC(=O)N(C)[C@H]2C/C=C\CCN(C2=O)[C@@H](Cc2ccc(C(F)(F)F)cc2)C(=O)N(C)CC(=O)N[C@@H](CCc2ccc(C(F)(F)F)c(Cl)c2)C(=O)N2C[C@H](OCC)C[C@H]2C(=O)NC2(CC(C)(C)C2)C(=O)N(C)[C@@H]([C@@H](C)CC)C(=O)N(C)[C@H](C(=O)N(C)C)CC(=O)N1C [PP2973] |  |  |  |  | A (a compound having 10 or more and less than 20 is denoted as A) | A (a compound having 10 or more and less than 20 is denoted as A)
7.8 | CCCN1C(=O)[C@@H]2CCN2C(=O)[C@H](C)N(C)C(=O)[C@H]([C@@H](C)CC)NC(=O)[C@H](CC(C)C)N(C)C(=O)C[C@@H](C(=O)N2CCOCC2)N(C)C(=O)[C@H](C2CCCC2)N(C)C(=O)C2(CCCC2)NC(=O)[C@@H]2CCN2C(=O)[C@H](CCc2ccc(C(F)(F)F)c(Cl)c2)NC(=O)CN(C)C(=O)[C@@H]1Cc1ccc(C(F)(F)F)cc1 [PP0281] ([NMeL]I[NMeA][Aze][NPrPhe(4-CF3)][Sar][hPhe(3-Cl-4-CF3)][Aze][Ac5c][NMeGly(cPent)][NMeD]-Morpholide; lactam N-11) |  |  |  |  | C (A compound having a KD ratio of 0.1 or more and less than 3 is denoted as C) | C (A compound having a KD ratio of 0.1 or more and less than 3 is denoted as C)
15.7 | CCO[C@@H]1C[C@H]2C(=O)NC3(CC(C)(C)C3)C(=O)N(C)[C@@H](C(CC)CC)C(=O)N(C)[C@H](C(=O)N(C)C)CC(=O)N(C)[C@@H](CC3CCC3)C(=O)N[C@@H]([C@@H](C)CC)C(=O)N(C)CC(=O)N(C)[C@H]3C/C=C\CCN(C3=O)[C@@H](Cc3ccc(C(F)(F)F)cc3)C(=O)N(C)CC(=O)N[C@@H](CCc3ccc(C(F)(F)F)c(Cl)c3)C(=O)N2C1 [PP2138] | A (a compound having 10 or more and less than 20 is denoted as A) | A (a compound having 10 or more and less than 20 is denoted as A) |  |  |  | 
10.5 | CCC[C@H]1C(=O)N[C@@H]([C@@H](C)CC)C(=O)N(C)CC(=O)N(C)[C@H]2C/C=C\CCN(C2=O)[C@@H](Cc2ccc(C(F)(F)F)cc2)C(=O)N(C)CC(=O)N[C@@H](CCc2ccc3c(C)cn(C)c3c2)C(=O)N2C[C@H](OCC)C[C@H]2C(=O)NC2(CC(C)(C)C2)C(=O)N(C)[C@@H](C2CCCC2)C(=O)N(C)[C@H](C(=O)N(C)C)CC(=O)N1C [PP2897] |  |  |  |  | A (a compound having 10 or more and less than 20 is denoted as A) | B (a compound having 3 or more and less than 10 is denoted as B)
24.3 | CCO[C@@H]1C[C@H]2C(=O)NC3(CC(C)(C)C3)C(=O)N(C)[C@@H](C(CC)CC)C(=O)N(C)[C@H](C(=O)N3CCCC3)CC(=O)N(C)[C@@H](COC)C(=O)N[C@@H]([C@@H](C)CC)C(=O)N(C)CC(=O)N(C)[C@H]3C/C=C\CCN(C3=O)[C@@H](Cc3ccc(C(F)(F)F)cc3)C(=O)N(C)CC(=O)N[C@@H](CCc3cc(F)c(C(F)(F)F)c(F)c3)C(=O)N2C1 [PP2123] | A (a compound having 10 or more and less than 20 is denoted as A) | A (a compound having 10 or more and less than 20 is denoted as A) |  |  |  | 
